Assay: in vitro
Conditions: human, hela cells

SMILES | viability at 28.5 h, 10 µM (% viability) [%] | further results
O=C(c1cccnc1)C1CCN(C(=O)C2CCCCC2)CC1 [CBK283817] | 90 | 
CN(CCCCCC(=O)/C=N/O)Cc1ccccc1 [CBK288499] | 91.7 | 
O=C(COc1ccc(Br)cc1)Nc1ccc(CN2CCCCC2)cc1 [CBK266181] | 99.5 | 
CCn1ncc2c1CCCC2NC1CCN(c2ccc(C#N)cc2)C1=O (stereo not shown) [CBK305200] | 96.8 | 
Cc1ccccc1-c1cncc(C2CCN(C(=O)CCOc3ccccc3)CC2)n1 [CBK286154] | 99 | 
O=C1CNC(=O)C2(C/C=C/C[C@H]3COCC[C@H]3N1)CCN(Cc1cccc3[nH]ccc13)CC2 [CBK292073] | 110 | 
CC(=O)N1CCOc2ccccc21 [CBK050388] | 92.7 | 
COc1ccc(-c2nc3cc(NC(=O)C(c4ccccc4)c4ccccc4)ccc3o2)cc1 [CBK264980] | 113 | 
COc1cccc2cc(C3CN(C(=O)C(C)(C)NC(=O)OC(C)(C)C)CC3C(=O)O)oc12 (stereo not shown) [CBK001348] | 102 | 
Cc1cc(C)nc(NC(=N)NC2Cc3ccccc3C2)n1 [CBK287863] | 43.4 | 
Cc1ccc(CCC(=O)N2CCCC2c2nc3ccccc3[nH]2)o1 (stereo not shown) [CBK284012] | 93.3 | 
CC(=O)NC(Cc1c[nH]c2ccccc12)C(=O)O (stereo not shown) [CBK217373] | 95.9 | 
Cc1ccccc1-n1ncc2c1NC(=O)N1CCCN=C21 [CBK284409] | 78.7 | 
Cc1nn(C)c(C)c1CN(C(=O)C(C)Oc1ccccc1F)C1CC1 (stereo not shown) [CBK281480] | 86.6 | 
N=C1S/C(=C/c2ccc(-c3ccccc3C(=O)O)o2)C(=O)N1c1nccs1 [CBK077624] | 93.9 | 
COc1ccc(NC2=C(NCCO)C(=O)c3ccccc3C2=O)cc1 [CBK264756] | 102 | 
Cc1c(C(C)NCC2CCN(C)CC2)cnn1-c1ccc(C#N)cc1 (stereo not shown) [CBK304058] | 97.3 | 
O=C(Cc1c(F)cccc1F)Nc1ccc2[nH]ccc2c1 [CBK144712] | 120 | 
COc1ccc(/C=C(\C)C(=O)Nc2ccc(N3CCNCC3)c3ccccc23)cc1OC [CBK038913T] | 92.4 | 
COc1ccc(OC)c(C(C)NC(=O)C2CCN(Cc3cccc(C(F)(F)F)c3)CC2)c1 (stereo not shown) [CBK148764] | 95.7 | 
Cn1cc(CC(=O)NCc2ccc(OC3CCNCC3)cc2)c2ccccc21 [CBK028430T] | 92.8 | 
O=C(c1ccccc1)c1cc(Cl)ccc1-n1ccnc1 [CBK012383] | 105 | 

SMILES | viability at 28.5 h, 10 µM (% viability) [%] | further results
O=C(c1cc2c(F)cccc2[nH]1)N1CCC(Oc2cccnc2)CC1 [CBK281468] | 103 | 
O=C1N[C@]2(CCc3ccccc31)CN(CC1CC=CCC1)C[C@H]2CO (stereo partly shown) [CBK284794] | 96 | 
FC(F)(F)c1nc2ccccc2nc1Sc1ccncc1 [CBK093773] | 92.8 | 
CC(=O)Nc1ccc(Nc2nc(-c3ccc(O)cc3)cn3ccnc23)cc1 [CBK037992] | 94.8 | 
Cc1cccc(-c2ccc3c(c2)C(=O)N2CC[C@H](NC(=O)c4cnccn4)[C@H]2C(=O)N3)c1C [CBK289348] | 87.2 | 
Cc1ccc(NC(=O)c2cnccn2)c(C)n1 [CBK200291] | 97.2 | 
CN(C)C(=O)OCCn1c(=O)oc2cc(Cl)ccc21 [CBK306455] |  | viability at 28.5 h, 10 µM: 81.9%
CCn1nccc1C(=O)N1CCC(c2cc3c(C)cccc3cn2)CC1 [CBK282234] | 92.4 | 
O=C(NCC1(c2ccccc2F)CCCC1)c1cc[nH]c(=O)c1 [CBK281378] | 112 | 
Cc1nonc1NC(=O)Nc1ccncc1 [CBK260982] | 94.7 | 
CC1CCCC(C)N1CC(O)COc1ccc(/N=C/c2ccccc2)cc1 (stereo not shown) [CBK261764] | 78.5 | 
COc1ccc(C2CC(c3ccc(Cl)cc3)Nc3ncnn32)c(OC)c1 (stereo not shown) [CBK287848] | 98.7 | 
C=CCN1C(=O)CC2(C1=O)C(=O)N(Cc1ccc(S(=O)(=O)N(CC)CC)cc1)c1ccc(Cl)cc12 (stereo not shown) [CBK075412] | 98 | 
O=C1NC(=O)C(=Cc2ccc(-c3ccc([N+](=O)[O-])cc3)o2)C(=O)N1 [CBK229904] |  | viability at 28.5 h, 10 µM (% viability, bulk resorufin, single well): 114%
CC(C)(C)Nc1nc(OCC#N)nc(N2CCCCC2)n1 [CBK269483] | 97.2 | 
COc1ccc(N(C(C)C(=O)N/N=C(\C)c2ccccc2O)S(C)(=O)=O)cc1 (stereo not shown) [CBK262402] | 93.4 | 
CC1CCC/C(=N\NC(=O)C2C3CCCCC32)C1 (stereo not shown) [CBK025750] | 116 | 
O=C(NCC1COc2ccccc2O1)N1CCN(c2cc(C(F)(F)F)ccn2)CC1 (stereo not shown) [CBK156432] | 88.2 | 
Cc1ccc2nc(-c3ccccc3)cc(C(=O)NCCCn3ccnc3)c2c1 [CBK268526] | 96.1 | 
C=CCn1c(Cc2csc(NC(=O)c3ccc(Cl)cc3)n2)n[nH]c1=S [CBK295318] | 86.7 | 
Cc1cn(S(=O)(=O)N(C)C)nc1-c1ccccc1 [CBK005210] | 89.9 | 
CC(C)(C)C(=O)N1CCC2(CC1)Nc1cccnc1-n1cccc12 [CBK284507] | 95.6 | 

SMILES | viability at 28.5 h, 10 µM (% viability) [%] | further results
Cc1csc(-c2cnc(N3CCOCC3)c3nccn23)c1 [CBK091287] | 87.5 | 
COc1ccc(-n2c(S)nnc2-c2cc(C(C)(C)C)n[nH]2)cc1 [CBK269071] | 97.9 | 
COc1cccc(-c2nnc(SCC(=O)Nc3cccc([N+](=O)[O-])c3)n2C)c1 [CBK266074] | 106 | 
COC1CCCN(Cc2cncn2C2CCCCC2)C1 (stereo not shown) [CBK306542] | 101 | 
Cc1c(C(=O)N(C)Cc2cc3ccccc3o2)nnn1C1CCNCC1 [CBK304307C] | 96.4 | 
CC(=O)NCCNC(=O)c1ccc(-c2cnc(OCC3CCN(C(=O)OC(C)(C)C)CC3)nc2)cn1 [CBK170023] | 104 | 
Fc1ccc(-c2ccc(Nc3cccnc3)nc2)cc1Cl [CBK037642] | 93 | 
Cc1cc(C)nc(NC(=O)COc2ccc([N+](=O)[O-])cc2)n1 [CBK265004] | 101 | 
COc1cccc(-c2ccc3ccc(N)nc3n2)c1 [CBK061640] | 99 | 
CCn1c2ccccc2c2cc(C(N)=O)c(N)nc21 [CBK019787] | 85.2 | 
CC(NC(=O)c1cc(C(F)(F)F)n(C)n1)c1cccnc1 (stereo not shown) [CBK282203] | 97.6 | 
O=C(Cn1cnc2c(cnn2-c2ccccc2)c1=O)N1CCc2ccccc21 [CBK287529] | 91.7 | 
CC1(OCc2ccccc2)SC(NC2CCCCCC2)=NC1=O (stereo not shown) [CBK105606] | 82.8 | 
Cc1noc2c1[C@H]1[C@H](O)[C@H](O)C[C@H]1C1(CCC1)N2 [CBK303266] | 111 | 
CS(=O)(=O)N(Cc1ccccc1)c1ccc(C(=O)Nc2ccccc2Cl)cc1 [CBK262745] | 86.9 | 
COC(=O)c1sc2cc(C(F)(F)F)cnc2c1NC(=O)C1COc2ccccc2O1 (stereo not shown) [CBK115865] | 107 | 
Clc1ccc(COc2cccc(CNCc3ccccn3)c2)c(Cl)c1 [CBK270060C] | 88.8 | 
Nc1ncc(-c2ccc(C(=O)N3CCOCC3)cc2)nc1-c1ccc(CCC(=O)O)cc1 [CBK126368] | 97.3 | 
O=C(CS(=O)(=O)c1ccccc1)N1CCN2C(=O)N(C3CCCCC3)C(=O)[C@H]2C1 [CBK289580] | 89.6 | 
CSCCCNC(=O)N(Cc1cccnc1)Cc1ccc2c(c1)OCO2 [CBK159426] | 92.7 | 
CCC(CO)NCc1ccc(OCC(N)=O)cc1 (stereo not shown) [CBK304670] | 100 | 
CCC1(CC)OC(N[C@@H](C)c2ccc3ccccc3c2)=NC1=O [CBK123982] | 90.2 | 

SMILES | viability at 28.5 h, 10 µM (% viability) [%] | further results
Cc1nn(CCC(=O)NC(C)Cc2ccccn2)c(C)c1Cl (stereo not shown) [CBK281419] | 97.1 | 
OCCn1c(S)nnc1-c1ccccc1 [CBK100025] | 85.4 | 
O=[N+]([O-])c1ccc(NCCNC(=S)Nc2ccc(Cl)cc2)nc1 [CBK263594] | 85.8 | 
COc1ccc([C@@]23CC[C@@H](NC(=O)c4ccc(Br)c(C)c4)C[C@@H]2N(C)CC3)cc1OC [CBK076656T] | 81.2 | 
CCCOC1CCCN(S(=O)(=O)c2cnc3ccsc3c2)C1 (stereo not shown) [CBK306367] | 75.5 | 
O=C(O)c1ccc(C(=O)O)c2c(-c3ccc(C(=O)O)c4c(C(=O)O)ccc(C(=O)O)c34)ccc(C(=O)O)c12 [CBK261267] | 98.4 | 
CC(C)c1ccc(S(=O)(=O)Nc2ccon2)cc1 [CBK044584] | 115 | 
COc1cc(C2C(C#N)=C(N)OC3=C2C(=O)CC(c2ccccc2)C3)cc(Br)c1O (stereo not shown) [CBK261587] | 87.1 | 
Cc1ccc(N(CC(=O)Nc2cccc3cccnc23)S(=O)(=O)c2ccc(C)cc2)cc1 [CBK262201] | 104 | 
O=C(Nc1ccc2c(c1)OCCO2)N1CCCCC1CO (stereo not shown) [CBK156178] | 105 | 
CC1(C)CN=C(N2CCN(C3=NCC(C)(C)S3)CC2)S1 [CBK020461] | 93.8 | 
CCCCSc1nc(N)cc(N2CCCC(C(=O)N3CCOCC3)C2)n1 (stereo not shown) [CBK307210] | 75.2 | 
O=C(NC(=S)Nc1cccc(-c2nc3ncccc3o2)c1)c1cc([N+](=O)[O-])ccc1N1CCOCC1 [CBK268756] | 92.7 | 
CC1(c2ccccc2)CC(C)(C)N(C(=O)C2CCCO2)c2ccccc21 (stereo not shown) [CBK059175] | 97.5 | 
CC(C)(C)OC(=O)N1CCN(C(=O)c2cc(-c3cccnc3)on2)CC1 [CBK305648] | 88.7 | 
Cc1c(C(=O)N2CCN(C3CCCCC3)C(=O)C2)[nH]c2ccccc12 [CBK282539] | 99.3 | 
O=C(c1ccccc1)N1C[C@@H]2CCCCN(CC3CC3)[C@@H]2C1 [CBK285498] | 102 | 
CC(=O)Nc1ccc(-c2ccc(C(=O)NCCc3ccc(O)cc3)cn2)cc1 [CBK158840] | 105 | 
N#Cc1cc(Nc2ccc(Cc3ccncc3)cc2)c([N+](=O)[O-])cc1C#N [CBK264090] | 93.9 | 
CCc1nc(C(C)NC(=O)COc2nn(C)c3nc(C)cc(C)c23)cs1 (stereo not shown) [CBK306024] | 93.3 | 
C[C@]12CN(C(=O)c3ccccc3)C[C@H]1NC(=O)c1ccccc1C2=O [CBK281657] | 102 | 
Brc1ccc(CN2CCN3CCCC3C2C2CCCCC2)o1 (stereo not shown) [CBK021456] | 82.6 | 
